Data from US8735593B2, “Aminopyridines useful as inhibitors of protein kinases” (Vertex Pharmaceuticals Incorporated, priority 2007, dated 2014).
Where two headings read alike, the source gives them in different places.

What was measured:
[1] = molecular target: GSK-3β (AA 1-420) (Homo sapiens (Human), UniProt P49841); test: GSK-3 Inhibition Assay (standard coupled enzyme system); type: biochemical; conditions: 20 μM ATP, 300 μM peptide, 20 nM GSK-3β, 30° C.
Experimental: Compounds of the present invention were screened for their ability to inhibit GSK-3β (AA 1-420) activity using a standard coupled enzyme system (Fox et al., Protein Sci. 1998, 7, 2249). Reactions were carried out in a solution containing 100 mM HEPES (pH 7.5), 10 mM MgCl2, 25 mM NaCl, 300 μM NADH, 1 mM DTT and 1.5% DMSO. Final substrate concentrations in the assay were 20 μM ATP (Sigma Chemicals, St Louis, Mo.) and 300 μM peptide (American Peptide, Sunnyvale, Calif.). Reactions were carried out at 30° C. and 20 nM GSK-3β. Final concentrations of the components of the coupled enzyme system were 2.5 mM phosphoenolpyruvate, 300 μM NADH, 30 μg/ml pyruvate kinase and 10 μg/ml lactate dehydrogenase.
An assay stock buffer solution was prepared containing all of the reagents listed above with the exception of ATP and the test compound of the present invention. The assay stock buffer solution (175 μl) was incubated in a 96 well plate with 5 μl of the test compound of the present invention at final concentrations spanning 0.002 μM to 30 μM at 30° C. for 10 min. Typically, a 12-point titration was conducted by preparing serial dilutions (from 10 mM compound stocks) with DMSO of the test compounds of the present invention in daughter plates. The reaction was initiated by the addition of 20 μl of ATP (final concentration 20 μM). Rates of reaction were obtained using a Molecular Devices Spectramax plate reader (Sunnyvale, Calif.) over 10 min at 30° C. The Ki values were determined from the rate data as a function of inhibitor concentration.

[2] = molecular target: GSK3α TYR 279 (Homo sapiens (Human), UniProt P49840); test: GSK-3α p-TYR inhibition assay, western blotting of Jurkat cells; type: cell-based; conditions: compound incubated o/n, read-out: GSK3a pTYR 279: IC50
Experimental: (§1) Compounds are screened for their ability to inhibit the phosphorylation of tyrosine (TYR) residues through the use of western blotting of Jurkat cells dosed with the compounds. The phosphorylation of the specific TYR residues tested are GSK3α TYR 279 and GSK3β TYR 216.
(§2) Jurkat cells are seeded at a density of 2×10^5 cells/well in a 12 well dish in starvation media (RPMI+1% FBS+P/S). Following starvation for 16 hours, the compound is dosed into each well at a final DMSO concentration of 0.3% and cells are incubated o/n at 37° C. 5% CO2. The next day, cells are spun down at 1500 rpm, washed with PBS, and lysed in 100 uL Laemli sample buffer with β-mercaptoethanol.
(§3) 15 microliters (uL) of cell lysates are loaded onto a 10% tris-glycine gel and run at 120 v for 2 hours or until dye front runs off of the gel. The protein is then transferred onto a PVDF membrane at 100 v for 60 min. PBST (PBS containing 0.1% Tween 20, such as 1 ml Tween per 1 L of PBS) is then made up and used for all washes and antibody incubations. The blot is blocked in 5% nonfat milk PBST for one hour.
(§4) The primary antibody (GSK-3α/β pTYR 279/216 at 1:1000 dilution Upstate cat#05-413) is then added in 5%-nonfat milk PBST overnight at 4° C. with gentle rocking. The blot is then washed in PBST for 5 min. This is then repeated 4 times. A secondary anti-mouse-HRP conjugated antibody (1:5000 dilution) is added for 60 min in 5% milk PBST. The blot is then washed in PBST for 5 min. This is also repeated 4 times. 3.0 mL of the developing solution (ECL plus Western Blotting Detection System from Amersham/GE cat# RPN2132) is made and then added. The solution is swirled over the blot for ˜30 sec. The blot is then developed using CL-Xposure clear blue X-ray film. GAPDH expression level is used as a loading control, (GAPDH antibody: santa cruz 25-778) at 1:10000 dilution.
(§5) For determination of GSK-3α and GSK-3β pTYR IC50, the density of the respective bands for each protein at specific compound concentration is compared to a no compound DMSO treated control cell sample present on each exposure. IC50 numbers are defined as the concentration of compound in which the density of the GSK-3α or GSK-3β band is 50% of the no compound control.

[3] = molecular target: GSK3β TYR 216 (Homo sapiens (Human), UniProt P49841); test: GSK3β p-TYR inhibition assay, western blotting of Jurkat cells; type: cell-based; conditions: compound incubated o/n, read-out: GSK3b pTYR 216: IC50
Experimental: as §1, §2, §3, §4, §5

[4] = system: β-catenin dependent TCF/LEF transcriptional activity; test: β-Catenin stabilization protocol, β-lactamase reporter assay in Jurkat cells; type: cell-based; conditions: Homo sapiens, 460/530 ratio 50% of the maximum effect, read-out: Beta Catenin IC50
Excerpt: GSK-3 phosphorylation of β-catenin targets it to the proteosome for degradation. Inhibition of GSK-3 results in accumulation of β-catenin in the cytosol of cells which through interaction with the transcription factor TCF/LEF translocates to the nucleus and drives the transcription of Wnt-dependent genes. The assay is designed to determine the level of β-catenin dependent TCF/LEF transcriptional activity in a quantitative manner through the use of a β-lactamase reporter assay in Jurkat cells dosed with a compound.
Jurkat β-catenin cells are starved overnight in assay media (1% FBS, 1× Penstrep, RPMI) in the flask. The next day Jurkat β-catenin cells are seeded in 96 well flat bottom plates at a density of 50,000 cells/well in assay media in a volume of 100 ul. The compound is added to the well at a final DMSO concentration of 0.75% and incubated at 37° C. o/n. The next day, 20 uL of 6×CCF4 dye is added to the wells and incubated at room temperature for 1-2 hours. Plates are read on the Cytofluor 4000 series multiwell plate reader and the 460/530 ratio is determined. The GSK-3 IC50 for induction of β-catenin is determined by plotting the 460/530 ratio against the concentration of compound (Log scale) and using the equation of the slope to calculate the point at which the ratio is 50% of the maximum effect.

[5] = system: amyloid-β peptide tissue levels; conditions: mice over-expressing APP, treated over a three-week period; cited from earlier work
[6] = system: rat brains after transient middle cerebral artery occlusion (MCAO); conditions: cited from earlier work
[7] = read-out: Ki value, inhibition of GSK-3
[8] = read-out: Ki value, inhibition of GSK-3 (upper bound)

GSK-3β (AA 1-420), sequence (P49841 whole entry, species assumed, the tested form may be a part): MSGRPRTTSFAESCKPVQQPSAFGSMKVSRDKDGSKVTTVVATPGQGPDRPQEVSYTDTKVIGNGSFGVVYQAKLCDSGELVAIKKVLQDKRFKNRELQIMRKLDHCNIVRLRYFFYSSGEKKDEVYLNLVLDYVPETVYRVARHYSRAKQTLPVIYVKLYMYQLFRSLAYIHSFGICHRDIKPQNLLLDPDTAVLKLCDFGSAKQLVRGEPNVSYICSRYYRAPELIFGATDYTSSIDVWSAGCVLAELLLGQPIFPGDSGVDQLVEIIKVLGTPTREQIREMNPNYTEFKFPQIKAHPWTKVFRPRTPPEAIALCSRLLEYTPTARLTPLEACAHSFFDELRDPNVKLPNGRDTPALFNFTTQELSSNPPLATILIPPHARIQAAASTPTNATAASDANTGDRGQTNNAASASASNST
GSK3β TYR 216, sequence (P49841 whole entry): as the sequence (P49841 whole entry, species assumed, the tested form may be a part) above
GSK3α TYR 279, sequence (P49840 whole entry): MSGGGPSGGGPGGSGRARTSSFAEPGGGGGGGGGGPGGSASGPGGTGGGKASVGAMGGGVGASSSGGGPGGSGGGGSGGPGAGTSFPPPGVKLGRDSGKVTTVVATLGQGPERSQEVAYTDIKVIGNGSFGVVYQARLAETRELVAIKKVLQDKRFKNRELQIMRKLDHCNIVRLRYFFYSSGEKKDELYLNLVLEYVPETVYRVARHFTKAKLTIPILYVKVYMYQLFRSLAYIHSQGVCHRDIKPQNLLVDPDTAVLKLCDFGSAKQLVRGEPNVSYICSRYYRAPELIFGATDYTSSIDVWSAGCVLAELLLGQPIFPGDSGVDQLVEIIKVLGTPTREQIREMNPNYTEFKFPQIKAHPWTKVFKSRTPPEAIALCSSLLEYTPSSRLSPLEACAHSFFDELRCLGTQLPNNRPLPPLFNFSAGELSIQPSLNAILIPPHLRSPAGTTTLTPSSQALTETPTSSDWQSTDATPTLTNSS

| Ki [1, 7] | Ki [1, 8] | IC50 [2] | IC50 [3] | IC50 [4] | Compound | decrease in amyloid-β peptide tissue levels [5] | infarct size [6] |
| --- | --- | --- | --- | --- | --- | --- | --- |
| > 10 nM | ≤ 1000 nM | 3 nM | 50 nM | 2080 nM | Fc1cnc2[nH]nc(Nc3cc(C(F)(F)F)cc(-c4ccccc4Cl)n3)c2c1 [Compound I-1, N-(6-(2-chlorophenyl)-4-(trifluoromethyl)pyridin-2-yl)-5-fluoro-1H-pyrazolo[3,4-b]pyridin-3-amine] |  |  |
| ≤ 10 nM |  | 10 nM | 200 nM | > 10000 nM | Cc1cc(Nc2n[nH]c3ncc(F)cc23)nc(-c2ccccc2Cl)c1C [Compound I-2] |  |  |
| ≤ 10 nM |  | 2 nM | 30 nM | 2700 nM | Cc1cc(Nc2n[nH]c3ncc(F)cc23)nc(-c2ccccc2Cl)c1 [Compound I-3] |  |  |
| > 10 nM | ≤ 1000 nM | 30 nM | 300 nM |  | Cc1cc(-c2ccccc2Cl)nc(Nc2n[nH]c3ncc(F)cc23)c1C [Compound I-4] |  |  |
| ≤ 10 nM |  | 0.6 nM | 20 nM | 1100 nM | Cc1cc(Nc2n[nH]c3ncc(F)cc23)nc(-c2ccccc2)c1C [Compound I-5] |  |  |
| > 10 nM | ≤ 1000 nM |  |  | 1300 nM | Cc1cc(Nc2ncc(C)s2)nc(-c2ccccc2Cl)c1 [Compound I-6] |  |  |
|  |  |  |  |  | [Li] [lithium] | > 50% |  |
|  |  |  |  |  | IGF-1: insulin growth factor-1, a known GSK-3 inhibitor |  | reduced infarct size |
